Measurements taken from US11274084B2, “3-aryl-4-amido-bicyclic [4,5,0] hydroxamic acids as HDAC inhibitors” (Valo Health, Inc., priority 2015, dated 2022).

Biological target: T1, HDAC6 (Homo sapiens, UniProt Q9UBN7)
T1 construct: Full length human recombinant HDAC6 protein; made in house
T1 sequence (Q9UBN7 1-1215): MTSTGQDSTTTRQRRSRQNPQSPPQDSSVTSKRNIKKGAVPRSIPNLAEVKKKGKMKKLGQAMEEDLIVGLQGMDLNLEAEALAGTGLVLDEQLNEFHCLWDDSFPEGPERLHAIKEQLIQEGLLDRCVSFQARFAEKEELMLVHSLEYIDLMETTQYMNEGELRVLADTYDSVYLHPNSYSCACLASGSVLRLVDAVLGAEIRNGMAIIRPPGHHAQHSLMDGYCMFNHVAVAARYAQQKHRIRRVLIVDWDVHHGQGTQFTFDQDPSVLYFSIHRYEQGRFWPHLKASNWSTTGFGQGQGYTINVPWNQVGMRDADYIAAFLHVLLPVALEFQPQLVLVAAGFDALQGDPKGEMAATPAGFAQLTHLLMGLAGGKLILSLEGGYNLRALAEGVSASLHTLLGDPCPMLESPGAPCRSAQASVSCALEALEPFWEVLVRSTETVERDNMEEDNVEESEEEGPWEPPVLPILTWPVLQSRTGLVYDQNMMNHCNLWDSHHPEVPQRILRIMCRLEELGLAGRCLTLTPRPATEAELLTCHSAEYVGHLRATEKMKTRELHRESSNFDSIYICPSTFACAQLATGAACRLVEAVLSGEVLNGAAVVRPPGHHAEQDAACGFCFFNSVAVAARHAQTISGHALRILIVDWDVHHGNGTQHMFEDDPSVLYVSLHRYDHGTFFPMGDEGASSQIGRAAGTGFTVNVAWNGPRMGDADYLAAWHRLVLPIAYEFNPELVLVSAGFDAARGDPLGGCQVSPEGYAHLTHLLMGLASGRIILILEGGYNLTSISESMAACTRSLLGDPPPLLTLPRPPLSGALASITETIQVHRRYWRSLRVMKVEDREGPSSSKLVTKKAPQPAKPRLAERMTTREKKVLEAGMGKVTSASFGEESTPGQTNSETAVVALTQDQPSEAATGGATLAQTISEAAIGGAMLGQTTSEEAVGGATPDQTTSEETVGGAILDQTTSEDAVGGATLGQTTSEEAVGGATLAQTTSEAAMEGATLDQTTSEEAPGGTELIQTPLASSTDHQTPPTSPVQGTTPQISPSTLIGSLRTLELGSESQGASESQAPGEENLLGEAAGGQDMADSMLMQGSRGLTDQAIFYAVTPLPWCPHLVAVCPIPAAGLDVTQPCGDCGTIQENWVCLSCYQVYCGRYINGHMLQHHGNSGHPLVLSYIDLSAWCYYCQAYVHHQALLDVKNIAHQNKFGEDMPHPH
Experiment: In vitro histone deacetylase assay: enzymatic HDAC6 assay by electrophoretic mobility shift
Type: biochemical
Details: full length human recombinant HDAC6 1 nM, 2 μM peptide substrate RHKK(Ac)-NH2, 25° C., 12 concentrations; read-out: Inhibitory Concentration (IC50) against HDAC6, Activity Range
Method: The enzymatic HDAC6 assay was performed using electrophoretic mobility shift assay. […] The enzymatic reactions were assembled in 384-well plates in a total volume of 25 μL of a reaction buffer comprising. 100 mM HEPES, pH 7.5, 25 mM KCl, 0.1% bovine serum albumin, 0.01% Triton X-100, 1% DMSO (from compounds), 2 μM of the fluorescently labeled peptide substrate, and enzyme. The enzyme was added at a final concentration of 1 nM. The peptide substrate RHKK(Ac)-NH2 was used. The compounds were tested at 12 concentrations spaced by 3× dilution intervals. Negative control samples (0%-inhibition in the absence of inhibitor) and positive control samples (100%-inhibition) were assembled in replicates of four in each assay plate. The reactions were incubated at 25° C. and quenched by the addition of 45 μL of termination buffer (100 mM HEPES, pH 7.5, 0.01% Triton X-100, 0.05% SDS).
The terminated assay plates were analyzed on LabChip® 3000 microfluidic electrophoresis instrument (Perkin Elmer/Caliper Life Sciences). The fluorescence intensity of the electrophoretically separated de-acetylated product and substrate peptide was measured. Activity in each sample was determined as the product to sum ratio (PSR):P/(S+P), where P is the peak height of the product peptide and S is the peak height of the substrate peptide. Percent inhibition (Pinh) is determined using the following equation:
Pinh=(PSR0%−PSRinh)/(PSR0%−PSR100%)*100, where PSRinh is the product sum ratio in the presence of inhibitor, PSR0% is the average product sum ration in the absence of inhibitor, and PSR100% is the average product sum ratio in 100%-inhibition control samples. The IC50 values of inhibitors were determined by fitting the %-inhibition curves with 4 parameter dose-response models using XLfit 4 software.

Structure (SMILES) | IC50 [nM]
O=C(NO)c1ccc2c(c1)OC[C@H](c1ccccc1)N(C(=O)C1(F)CCOCC1)C2 [(S)-4-(4-fluorotetrahydro-2H-pyran-4-carbonyl)-N-hydroxy-3-phenyl-2,3,4,5-tetrahydrobenzo[f][1,4]oxazepine-8-carboxamide] | ≤ 100
O=C(NO)c1ccc2c(c1)OC[C@@H](c1ccccc1C(F)(F)F)N(C(=O)C1CCOCC1)C2 (single isomer, unassigned) | > 500
O=C(NO)c1ccc2c(c1)OC[C@H](c1ccccc1)N(C(=O)[C@@H]1CCCOC1)C2 (single isomer, unassigned) | ≤ 100
O=C(NO)c1ccc2c(c1)OC[C@H](c1ccccc1)N(C(=O)[C@H]1CCCOC1)C2 (single isomer, unassigned) | ≤ 100
O=C(NO)c1ccc2c(c1)OC[C@H](c1cccc(Cl)c1)N(C(=O)C1CCOCC1)C2 [(S)-3-(3-chlorophenyl)-N-hydroxy-4-(tetrahydro-2H-pyran-4-carbonyl)-2,3,4,5-tetrahydrobenzo[f][1,4]oxazepine-8-carboxamide] | ≤ 100
O=C(NO)c1ccc2c(c1)OC[C@H](c1ccccc1F)N(C(=O)C1CCOCC1)C2 [(S)-3-(2-fluorophenyl)-N-hydroxy-4-(tetrahydro-2H-pyran-4-carbonyl)-2,3,4,5-tetrahydrobenzo[f][1,4]oxazepine-8-carboxamide] | ≤ 100
O=C(NO)c1ccc2c(c1)OC[C@H](c1cccc(C(F)(F)F)c1)N(C(=O)C1CCOCC1)C2 (single isomer, unassigned) | ≤ 100
CO[C@H]1CC[C@H](C(=O)N2Cc3ccc(C(=O)NO)cc3OC[C@@H]2c2ccccc2)CC1 [(S)-N-hydroxy-4-((1r,4S)-4-methoxycyclohexane-1-carbonyl)-3-phenyl-2,3,4,5-tetrahydrobenzo[f][1,4]oxazepine-8-carboxamide] | ≤ 100
O=C(NO)c1ccc2c(c1)OC[C@H](c1ccccc1)N(C(=O)C1CCCCC1)C2 [(S)-4-(cyclohexanecarbonyl)-N-hydroxy-3-phenyl-2,3,4,5-tetrahydrobenzo[f][1,4]oxazepine-8-carboxamide] | ≤ 100
O=C(NO)c1ccc2c(c1)OC[C@H](c1ccccc1)N(C(=O)c1ccncc1)C2 [(S)-N-hydroxy-4-isonicotinoyl-3-phenyl-2,3,4,5-tetrahydrobenzo[f][1,4]oxazepine-8-carboxamide] | ≤ 100
CC(=O)N1CCC(C(=O)N2Cc3ccc(C(=O)NO)cc3OC[C@@H]2c2ccccc2)CC1 [(S)-4-(1-acetylpiperidine-4-carbonyl)-N-hydroxy-3-phenyl-2,3,4,5-tetrahydrobenzo[f][1,4]oxazepine-8-carboxamide] | ≤ 100
O=C(NO)c1ccc2c(c1)OC[C@H](c1ccc(Cl)cc1)N(C(=O)C1CCOCC1)C2 [(S)-3-(4-chlorophenyl)-N-hydroxy-4-(tetrahydro-2H-pyran-4-carbonyl)-2,3,4,5-tetrahydrobenzo[f][1,4]oxazepine-8-carboxamide] | ≤ 100
O=C(NO)c1ccc2c(c1)OC[C@H](c1ccc(F)cc1)N(C(=O)C1CCOCC1)C2 [(S)-3-(4-fluorophenyl)-N-hydroxy-4-(tetrahydro-2H-pyran-4-carbonyl)-2,3,4,5-tetrahydrobenzo[f][1,4]oxazepine-8-carboxamide] | ≤ 100
COC1(C(=O)N2Cc3ccc(C(=O)NO)cc3OC[C@@H]2c2ccccc2)CCCCC1 [(S)-N-hydroxy-4-(1-methoxycyclohexane-1-carbonyl)-3-phenyl-2,3,4,5-tetrahydrobenzo[f][1,4]oxazepine-8-carboxamide] | ≤ 100
O=C(NO)c1ccc2c(c1)OC[C@H](c1ccccc1)N(C(=O)C1CC3CCC(C1)O3)C2 (stereo partly drawn) [(3S)-4-(8-oxabicyclo[3.2.1]octane-3-carbonyl)-N-hydroxy-3-phenyl-2,3,4,5-tetrahydrobenzo[f][1,4]oxazepine-8-carboxamide] | ≤ 100
Cc1ccccc1[C@H]1COc2cc(C(=O)NO)ccc2CN1C(=O)C1CCOCC1 [(S)-N-hydroxy-4-(tetrahydro-2H-pyran-4-carbonyl)-3-(o-tolyl)-2,3,4,5-tetrahydrobenzo[f][1,4]oxazepine-8-carboxamide] | ≤ 100
O=C(NO)c1ccc2c(c1)OC[C@H](c1ccccc1)N(C(=O)C1CCC1)C2 [(S)-4-(cyclobutanecarbonyl)-N-hydroxy-3-phenyl-2,3,4,5-tetrahydrobenzo[f][1,4]oxazepine-8-carboxamide] | ≤ 100
O=C(NO)c1ccc2c(c1)OC[C@H](c1ccccc1)N(C(=O)C1CCCO1)C2 (stereo partly drawn) [(3S)-N-hydroxy-3-phenyl-4-(tetrahydrofuran-2-carbonyl)-2,3,4,5-tetrahydrobenzo[f][1,4]oxazepine-8-carboxamide] | ≤ 100
COCC1(C(=O)N2Cc3ccc(C(=O)NO)cc3OC[C@@H]2c2ccccc2)CC1 [(S)—N-hydroxy-4-(1-(methoxymethyl)cyclopropane-1-carbonyl)-3-phenyl-2,3,4,5-tetrahydrobenzo[f][1,4]oxazepine-8-carboxamide] | ≤ 100
CC1(C(=O)N2Cc3ccc(C(=O)NO)cc3OC[C@@H]2c2ccccc2)CCOCC1 [(S)-N-hydroxy-4-(4-methyltetrahydro-2H-pyran-4-carbonyl)-3-phenyl-2,3,4,5-tetrahydrobenzo[f][1,4]oxazepine-8-carboxamide] | ≤ 100
CN1CCC(C(=O)N2Cc3ccc(C(=O)NO)cc3OC[C@@H]2c2ccccc2)CC1 [(S)-N-hydroxy-4-(1-methylpiperidine-4-carbonyl)-3-phenyl-2,3,4,5-tetrahydrobenzo[f][1,4]oxazepine-8-carboxamide] | ≤ 100
O=C(NO)c1ccc2c(c1)OC[C@H](c1ccccc1)N(C(=O)C1CCOCC1)C2 [(S)-N-hydroxy-3-phenyl-4-(tetrahydro-2H-pyran-4-carbonyl)-2,3,4,5-tetrahydrobenzo[f][1,4]oxazepine-8-carboxamide] | ≤ 100
O=C(NO)c1ccc2c(c1)OC[C@@H](c1cccnc1)N(C(=O)C1CCOCC1)C2 (single isomer, unassigned) | ≤ 100
CC(C)(C)C(=O)N1Cc2ccc(C(=O)NO)cc2OC[C@@H]1c1ccccc1 [(S)-N-hydroxy-3-phenyl-4-pivaloyl-2,3,4,5-tetrahydrobenzo[f][1,4]oxazepine-8-carboxamide] | ≤ 100
O=C(NO)c1ccc2c(c1)OC[C@H](c1ccccc1)N(C(=O)c1ccc(F)cc1)C2 [(S)-4-(4-fluorobenzoyl)-N-hydroxy-3-phenyl-2,3,4,5-tetrahydrobenzo[f][1,4]oxazepine-8-carboxamide] | ≤ 100
O=C(NO)c1ccc2c(c1)OC[C@H](c1cccnc1)N(C(=O)C1CCOCC1)C2 (single isomer, unassigned) | 100 to 500
O=C(NO)c1ccc2c(c1)OC[C@H](c1ccccc1)N(C(=O)C1COC1)C2 [(S)-N-hydroxy-4-(oxetane-3-carbonyl)-3-phenyl-2,3,4,5-tetrahydrobenzo[f][1,4]oxazepine-8-carboxamide] | ≤ 100
O=C(NO)c1ccc2c(c1)OC[C@H](c1ccccc1)N(C(=O)c1cccnc1)C2 [(S)-N-hydroxy-4-nicotinoyl-3-phenyl-2,3,4,5-tetrahydrobenzo[f][1,4]oxazepine-8-carboxamide] | ≤ 100
